Measured values: patent US11833137B2, “Substituted chromenones, IRE1 inhibitors, and methods of using same” (The Wistar Institute, priority 2018, dated 2023)

Assays:
5TGM1 cells = assay: Cell proliferation XTT assay, 5TGM1; type: cell-based, mouse; conditions: 20 μM for a course of 3 days
Method in brief: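 In phenol red-free RPMI, 5TGM1 cells were treated with IRE1 inhibitors at 20 μM unless indicated otherwise. At indicated time points, proliferation was read by XTT after 4 h incubation, with formazan absorbance measured at 492 nm.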

[1] = Fluorescence stability (decomposition) in aqueous solution; type: physicochemical; conditions: PBS with 1% DMSO, 37° C., 48 h, from 100%
Method: (FIG. 2B) 5TGM1 cells were treated with DMSO or with 20 μM 2, 4, 3, or 7 dissolved in DMSO for 3 days and subjected to XTT assays. Percentages of growth were determined by comparing treated groups with control groups (DMSO). Each data point derived from four independent groups receiving exactly the same treatment was plotted as mean±SD. Results are representative of three independent experiments. […] The values of I/I0 were plotted as a function of time and shown in the inset. I0 was the initial fluorescence intensity of 4 at 0 h. […] The values of I/I0 were plotted as a function of time and shown in the inset. I0 was the initial fluorescence intensity of 5 at 0 h. […] (FIG. 2G) The decomposition rates of 7 and 8 were plotted as a function of time in RPMI media incubated at 37° C. Aliquots were analyzed by HPLC and the peaks integrated.
FIGS. 5A-5J illustrate the finding that installation of a boronate cage cleavable by H2O2 stabilizes the 1,3-dioxane acetal protective group of D-F07 to allow for temporal inhibition of XBP-1s upon contact with H2O2. (FIG. 5A) A scheme showing that installation of a boronate-caged group stabilizes the 1,3-dioxane acetal protective group to allow for H2O2-mediated release of intact D-F07. (FIG. 5B) The fluorescence of BC-D-F07a (2.5 μM in the DMSO/PBS solution (v/v=1:99), Ex=360 nm) increases upon incubation with 0 to 200 μM hydrogen peroxide at room temperature for 1 h. (FIG. 5C) The fluorescence of BC-D-F07b (2.5 μM in the DMSO/PBS solution (v/v=1:99), Ex=360 nm) increases upon incubation with 0 to 2 mM hydrogen peroxide at 37° C. for 1 h. […] I0 was the initial fluorescence intensity of D-F07, BC-D-F07a or BC-D-F07b at 0 h. (FIG. 5E) The levels of hydrogen peroxide produced by 5TGM1, 72-h LPS-stimulated primary CLL, MEC2, and WaC3 cells were measured by Amplex Red with or without the addition of extracellular catalase (500 U/mL). (FIG. 5F) 5TGM1 cells were treated with BC-D-F07a at increasing concentrations for 24 h, lysed, and analyzed for the expression of indicated proteins by immunoblots. (FIG. 5G) CD5+ CLL cells purified from spleens of Eμ-TCL1 mice were stimulated with […], subsequently treated with BC-D-F07a at 20 μM for 16 h, and then incubated with hydrogen peroxide at indicated concentrations for another 4 h. Cells were lysed and analyzed for the expression of indicated proteins by immunoblots. […] Cells were lysed and analyzed for the expression of indicated proteins by immunoblots. […] Percentages of growth were determined by comparing treated groups with control groups (DMSO). […]
UV-vis and fluorescence spectra were carried out on a BioTek SYNERGY™ NEO2 instrument (96 well plate).

secretory IgM, B cells = conditions: cited from earlier work

fluorescence intensity remaining (decomposition) [1]: 5.1%
Structure (SMILES): O=c1oc2c(C3OCCCO3)c(O)ccc2c2c1CNCC2 [Compound 4, 7-(1,3-dioxan-2-yl)-8-hydroxy-1,2,3,4-tetrahydro-5H-chromeno[3,4-c]pyridin-5-one]
growth inhibition / cytotoxicity (XTT) (5TGM1 cells): more potent than their respective aldehyde counterparts | production of sIgM by treated B cells (secretory IgM, B cells): inefficient in producing sIgM
